For the test, the system named is 521955-158-R2-J5-PDC complex spheroid growth, % test/control. Description: Anticancer human tumor 521955-158-R2-J5-PDC patient-derived pancreatic carcinoma cell line growth inhibition [Asc]. The settings on record: for viability, T/C: stronger effect = lower value. In a few lines: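 Stromal components (HUVEC and hMSC) are co-assembled with the cancer cells into multicellular spheroids. Drugs are then added singly or paired, at concentrations falling by half-log increments from a clinically achievable maximum, capped at 10 microM without known Cmax.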

Setting [1] is: curve of first compound, second compound 0.01 µM.
Setting [2] is: curve of first compound, second compound 0.0316 µM.
Setting [3] is: curve of first compound, second compound 0.1 µM.
The mark [4] stands for this setting: curve of first compound, second compound 0.316 µM.
[5] abbreviates: curve of first compound, second compound 1 µM.
[6] abbreviates: second compound 0.01 µM, first compound 0.0316 µM.
[7] abbreviates: second compound 0.01 µM, first compound 0.1 µM.
[8] abbreviates: second compound 0.01 µM, first compound 0.316 µM.
The mark [9] stands for this setting: second compound 0.01 µM, first compound 1 µM.
The mark [10] stands for this setting: second compound 0.01 µM, first compound 3.16 µM.
Where [11] appears, read: second compound 0.01 µM, first compound 10 µM.
[12] abbreviates: second compound 0.0316 µM, first compound 0.0316 µM.
Setting [13] is: second compound 0.0316 µM, first compound 0.1 µM.
The mark [14] stands for this setting: second compound 0.0316 µM, first compound 0.316 µM.
Where [15] appears, read: second compound 0.0316 µM, first compound 1 µM.
The mark [16] stands for this setting: second compound 0.0316 µM, first compound 3.16 µM.
The mark [17] stands for this setting: second compound 0.0316 µM, first compound 10 µM.
Where [18] appears, read: second compound 0.1 µM, first compound 0.0316 µM.
Setting [19] is: second compound 0.1 µM, first compound 0.1 µM.
Setting [20] is: second compound 0.1 µM, first compound 0.316 µM.
Where [21] appears, read: second compound 0.1 µM, first compound 1 µM.
The mark [22] stands for this setting: second compound 0.1 µM, first compound 3.16 µM.
[23] abbreviates: second compound 0.1 µM, first compound 10 µM.
Where [24] appears, read: second compound 0.316 µM, first compound 0.0316 µM.
[25] abbreviates: second compound 0.316 µM, first compound 0.1 µM.
Setting [26] is: second compound 0.316 µM, first compound 0.316 µM.
Setting [27] is: second compound 0.316 µM, first compound 1 µM.
The mark [28] stands for this setting: second compound 0.316 µM, first compound 3.16 µM.
Setting [29] is: second compound 0.316 µM, first compound 10 µM.
The mark [30] stands for this setting: second compound 1 µM, first compound 0.0316 µM.
Where [31] appears, read: second compound 1 µM, first compound 0.1 µM.
The mark [32] stands for this setting: second compound 1 µM, first compound 0.316 µM.
[33] abbreviates: second compound 1 µM, first compound 1 µM.
Where [34] appears, read: second compound 1 µM, first compound 3.16 µM.
The mark [35] stands for this setting: second compound 1 µM, first compound 10 µM.

Several values for one entry are separate records, joined by “and”; a condition that tells them apart may be missing. Equal values may be shown once.
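Note: spheroids exposed to agents for 7 days before readout.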
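Throughout, for viability, T/C: 100% = DMSO vehicle control viability.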

For orientation: viability, T/C means the result in the treated group divided by that in the control group, in per cent. Usually IC50 stands for the concentration that gives 50% inhibition. With `C#Cc1c(F)ccc2cc(O)cc(-c3ncc4c(N5CC6CCC(C5)N6)nc(OCC56CCCN5CC(F)C6)nc4c3F)c12` (stereo not given), the viability, T/C runs as follows: (compound 0.0316 µM) 23.2% and 40.7% and 50.5%; (compound 0.1 µM) 28.2% and 48.4% and 47.1%; (compound 0.316 µM) 22.3% and 37.1% and 31.9%; (compound 1 µM) 20.6% and 36.3% and 36.4%; (compound 3.16 µM) 24.6% and 37.5% and 33.1%; (compound 10 µM) 21.9% and 34.4% and 44.3%. Besides, the IC50 (curve of compound) was < 0.0316 µM and 0.0359 µM.
For the compound `C=C(F)C(=O)N1CCN(c2nc(OCC3CCCN3C)nc3c2CCN(c2cccc4cccc(Cl)c24)C3)CC1CC#N` (stereo not given) + CNC(C)C(=O)NC1CN(S(=O)(=O)c2cccc(S(=O)(=O)N3CCC4CCC(C(=O)NC(c5ccccc5)c5ccccc5)N4C(=O)C(NC(=O)C(C)NC)C3)c2)CCC2CCC(C(=O)NC(c3ccccc3)c3ccccc3)N2C1=O, the IC50 stood at 5.38 µM under setting [1]; 5.41 µM under setting [2]; 5.72 µM under setting [3]; 5.6 µM under setting [4]; 5.44 µM under setting [5]. Moreover, the viability, T/C by setting is: under setting [6], 87.1%; under setting [7], 93.1%; under setting [8], 100%; under setting [9], 98.4%; under setting [10], 92.6%; under setting [11], 0.23%. Further, the viability, T/C under setting [12] is 100%; the viability, T/C under setting [13] is 95.6%; the viability, T/C under setting [14] was 81.3%; the viability, T/C under setting [15] is 90.6%; the viability, T/C under setting [16] is 99.7%; the viability, T/C under setting [17] was 0.23%. The viability, T/C was 111% under setting [18]; 106% under setting [19]; 79.8% under setting [20]; 93.4% under setting [21]; 98.2% under setting [22]; 5.12% under setting [23]. In addition, the viability, T/C is, setting by setting: under setting [24], 119%; under setting [25], 103%; under setting [26], 84%; under setting [27], 91.1%; under setting [28], 99%; under setting [29], 0.31%. Moreover, the viability, T/C by setting is: under setting [30], 85.9%; under setting [31], 102%; under setting [32], 92%; under setting [33], 94.7%; under setting [34], 93%; under setting [35], 1.89%.
In the case of `C=CC(=O)N1CCN(c2nc(=O)n(-c3c(C)ccnc3C(C)C)c3nc(-c4c(O)cccc4F)c(F)cc23)C(C)C1` (stereo not given) + CNC(C)C(=O)NC1CN(S(=O)(=O)c2cccc(S(=O)(=O)N3CCC4CCC(C(=O)NC(c5ccccc5)c5ccccc5)N4C(=O)C(NC(=O)C(C)NC)C3)c2)CCC2CCC(C(=O)NC(c3ccccc3)c3ccccc3)N2C1=O, the IC50 by setting is: under setting [1], more than 10 µM; under setting [2], more than 10 µM; under setting [3], more than 10 µM; under setting [4], more than 10 µM; under setting [5], more than 10 µM. Also, the viability, T/C under setting [6] is 91.1%; the viability, T/C under setting [7] was 105%; the viability, T/C under setting [8] is 111%; the viability, T/C under setting [9] was 118%; the viability, T/C under setting [10] was 119%; the viability, T/C under setting [11] is 88.2%. Also, the viability, T/C under setting [12] is 108%; the viability, T/C under setting [13] was 93.1%; the viability, T/C under setting [14] is 103%; the viability, T/C under setting [15] was 94.8%; the viability, T/C under setting [16] is 115%; the viability, T/C under setting [17] was 96.7%. The viability, T/C reads like this: under setting [18], 91.8%; under setting [19], 111%; under setting [20], 105%; under setting [21], 119%; under setting [22], 97.4%; under setting [23], 89.1%. The viability, T/C under setting [24] is 104%; the viability, T/C under setting [25] was 100%; the viability, T/C under setting [26] was 97.3%; the viability, T/C under setting [27] was 98.2%; the viability, T/C under setting [28] is 106%; the viability, T/C under setting [29] was 95.2%. The viability, T/C was 115% under setting [30]; 98.3% under setting [31]; 102% under setting [32]; 109% under setting [33]; 113% under setting [34]; 88.3% under setting [35].
For the compound `CNC(C)C(=O)NC1CN(S(=O)(=O)c2cccc(S(=O)(=O)N3CCC4CCC(C(=O)NC(c5ccccc5)c5ccccc5)N4C(=O)C(NC(=O)C(C)NC)C3)c2)CCC2CCC(C(=O)NC(c3ccccc3)c3ccccc3)N2C1=O` (stereo not given), the viability, T/C (compound 0.00316 µM) is 72.5% and 68.6%. The IC50 (compound alone, run of 10/03/2022) was more than 1 µM and the IC50 (curve of compound) was more than 1 µM.

The values above are taken from PubChem BioAssay AID1963430 (Molecular Pharmacology Branch, DTP, NCI, 2024).
